The target in one assay is XIAP BIR1/2 (Homo sapiens, UniProt P98170). Briefly: XIAP BIR1/2 Ki. Format: binding. Conditions: Table B-1.
The next assay addresses ML-IAP (Homo sapiens (Human), UniProt Q96CA5). Briefly: ML-IAP Ki. Format: binding. The settings on record: Table B-1.
Another assay relates to MDA-MB-231 cells. Briefly: MDA-MB-231 cell survival (Cell Titer Glo). Type of assay: cell-based. As for the experimental part: (§1) 5000 PPC-1 cells were plated and grown overnight. Compounds were plated and 4 hrs later, TRAIL was added to half of the plate while RPMI was added to the other half of the plate as a control. Plates were return to the incubator for 24 hrs. Plates were removed from the incubator and placed on the bench for 30 min and then 25 uL of Cell Titer Glo were added per well. Plates were placed on a rocker and then read on a luminometer. 5000 MDA-MB-231 cells were plated per well. Compound was added and 4 hrs later, TRAIL was added at 5 ng/mL; RPMI was added for a minus TRAIL control. Plates were incubated an additional 24 hrs, removed to the bench for 30 min, and then 25 uL of cell titer glo was added per well. Plates were placed on a rocker and read on a luminometer. Data were fit using PRISM.
In general terms: In ATP-based viability assays light output follows the ATP content of the culture.

Assay [1] deals with PPC-1 cells. As to the kind of experiment: PPC-1 cell survival with TNFα. Type of assay: cell-based. As to the method: as §1, with “Compounds were plated and 4 hrs later, TRAIL was added to half of the plate while RPMI was added to the other half of the plate as a control.” left out
Another assay concerns the target XIAP BIR3 (Homo sapiens (Human), UniProt P98170). Briefly: XIAP BIR3 Ki. The settings on record: Table B-1. Type of assay: binding.
Assay [2] concerns PPC-1 cells. As to the kind of experiment: PPC-1 cell survival with TRAIL (Cell Titer Glo). Type of assay: cell-based. As to the method: as §1

The structures appear in SMILES notation.

By Ki is commonly meant a dissociation constant, usually derived from enzyme kinetics or from competition with a known ligand. A lower Ki goes with a stronger hold on the target.

Chain of XIAP BIR1/2 (P98170 whole entry, looked up): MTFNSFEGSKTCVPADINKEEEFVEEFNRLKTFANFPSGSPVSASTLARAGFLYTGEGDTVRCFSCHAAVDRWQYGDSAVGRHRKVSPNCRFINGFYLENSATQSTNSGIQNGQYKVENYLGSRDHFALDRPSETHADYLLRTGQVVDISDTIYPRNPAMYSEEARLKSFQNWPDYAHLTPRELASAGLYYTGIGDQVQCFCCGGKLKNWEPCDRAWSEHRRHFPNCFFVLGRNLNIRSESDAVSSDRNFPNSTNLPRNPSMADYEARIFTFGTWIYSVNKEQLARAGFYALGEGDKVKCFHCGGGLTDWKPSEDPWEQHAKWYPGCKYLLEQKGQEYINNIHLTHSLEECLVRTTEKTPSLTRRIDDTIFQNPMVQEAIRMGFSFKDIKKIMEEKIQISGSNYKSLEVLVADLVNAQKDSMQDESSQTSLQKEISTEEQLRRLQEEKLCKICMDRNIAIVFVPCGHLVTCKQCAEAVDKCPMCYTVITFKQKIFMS
Chain of ML-IAP (Q96CA5 whole entry, species assumed): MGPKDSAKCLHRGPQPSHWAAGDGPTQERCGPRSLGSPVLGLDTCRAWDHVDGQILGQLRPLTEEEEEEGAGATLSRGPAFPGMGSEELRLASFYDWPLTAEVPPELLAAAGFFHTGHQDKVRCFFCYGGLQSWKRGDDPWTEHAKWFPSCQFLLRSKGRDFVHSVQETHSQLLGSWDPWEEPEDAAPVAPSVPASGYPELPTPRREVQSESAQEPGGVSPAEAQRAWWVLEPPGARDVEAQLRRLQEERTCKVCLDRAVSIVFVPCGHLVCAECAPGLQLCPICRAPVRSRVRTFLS
Chain of XIAP BIR3 (P98170 241-356): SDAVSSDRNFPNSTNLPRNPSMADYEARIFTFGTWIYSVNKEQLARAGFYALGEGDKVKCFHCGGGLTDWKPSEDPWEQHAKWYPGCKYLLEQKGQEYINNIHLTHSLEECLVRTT

In the case of `CN[C@@H](C)C(=O)N[C@H]1CCO[C@H]2CCC(C(=O)N[C@@H]3CCCc4ccccc43)N2C1=O` (some centres unmarked) [Product 12], the inhibition constant Ki is greater than 50 µM at XIAP BIR1/2, less than 25 µM at ML-IAP and less than 25 µM at XIAP BIR3. In addition, in the assay on MDA-MB-231 cells, the “MDA-MB-231 LD50” value was “A (A = ≤ 25 micromolar)”. The “PPC-1 (TNFα) LD50” value with PPC-1 cells [1] was “A (A = ≤ 25 micromolar)”. Besides, the “PPC-1 (TRAIL) LD50” value in the assay on PPC-1 cells [2] is recorded as “A (A = ≤ 25 micromolar)”.
With `CN[C@@H](C)C(=O)N[C@H]1CCS[C@H]2CCC(C(=O)N[C@@H]3CCCc4ccccc43)N2C1=O` (some centres unmarked) [Product 24], the results for the Ki on XIAP BIR1/2, on ML-IAP and on XIAP BIR3 were greater than 50 µM, less than 25 µM and less than 25 µM, respectively. Further, the “MDA-MB-231 LD50” value in the assay with MDA-MB-231 cells is “A (A = ≤ 25 micromolar)”. Further, the “PPC-1 (TNFα) LD50” value in the assay with PPC-1 cells [1] is “A (A = ≤ 25 micromolar)”. The “PPC-1 (TRAIL) LD50” value in the assay with PPC-1 cells [2] is on record as “A (A = ≤ 25 micromolar)”.
For `CN[C@@H](C)C(=O)N[C@H]1CCO[C@H]2CC(C)(C)[C@@H](C(=O)N[C@@H]3CCCc4ccccc43)N2C1=O` [Product 26], the inhibition constant Ki at XIAP BIR1/2, at ML-IAP and on XIAP BIR3 was less than 25 µM each time. The “MDA-MB-231 LD50” value in the assay with MDA-MB-231 cells is given as “A (A = ≤ 25 micromolar)”. Also, the “PPC-1 (TNFα) LD50” value with PPC-1 cells [1] is recorded as “A (A = ≤ 25 micromolar)”. Besides, the “PPC-1 (TRAIL) LD50” value with PPC-1 cells [2] is “A (A = ≤ 25 micromolar)”.
Consider `CN[C@@H](C)C(=O)N[C@H]1CCO[C@H]2c3ccccc3C(C(=O)N[C@@H]3CCCc4ccccc43)N2C1=O` (some centres unmarked) [Product 27], for which the inhibitory constant (Ki) on XIAP BIR1/2 was greater than 50 µM; on ML-IAP it was less than 25 µM; on XIAP BIR3 it was less than 25 µM. In the assay with PPC-1 cells [1], the “PPC-1 (TNFα) LD50” value is on record as “A (A = ≤ 25 micromolar)”. In the assay with PPC-1 cells [2], the “PPC-1 (TRAIL) LD50” value is “A (A = ≤ 25 micromolar)”.
In the case of `CN[C@@H](C)C(=O)N[C@H]1CCO[C@H]2CC[C@@H](C(=O)N[C@@H]3CCOc4ccccc43)N2C1=O` [Product 32], the figures for the Ki on XIAP BIR1/2, on ML-IAP and on XIAP BIR3 were greater than 50 µM, less than 25 µM and less than 25 µM, respectively. The “MDA-MB-231 LD50” value with MDA-MB-231 cells was “A (A = ≤ 25 micromolar)”. For the same molecule, the “PPC-1 (TNFα) LD50” value in the assay with PPC-1 cells [1] is given as “A (A = ≤ 25 micromolar)”. Besides, in the assay with PPC-1 cells [2], the “PPC-1 (TRAIL) LD50” value is on record as “A (A = ≤ 25 micromolar)”.
Regarding `CN[C@@H](C)C(=O)N[C@H]1CCO[C@H]2CC[C@@H](C(=O)N[C@@H]3CCCc4ccccc43)N2C1=O` [Product 33], the inhibition constant (Ki) on XIAP BIR1/2 was greater than 50 µM; on ML-IAP, less than 25 µM; at XIAP BIR3, less than 25 µM. In the assay with PPC-1 cells [1], the “PPC-1 (TNFα) LD50” value is reported as “A (A = ≤ 25 micromolar)”. Besides, the “PPC-1 (TRAIL) LD50” value in the assay with PPC-1 cells [2] was “A (A = ≤ 25 micromolar)”.
`CN[C@@H](C)C(=O)N[C@H]1CCS[C@H]2CC[C@@H](C(=O)N[C@@H]3CCCc4ccccc43)N2C1=O` [Product 34]: the Ki on XIAP BIR1/2 was greater than 50 µM; on ML-IAP it was less than 25 µM; on XIAP BIR3, less than 25 µM. Further, the “PPC-1 (TNFα) LD50” value in the assay on PPC-1 cells [1] is listed as “A (A = ≤ 25 micromolar)”. Also, the “PPC-1 (TRAIL) LD50” value with PPC-1 cells [2] is “A (A = ≤ 25 micromolar)”.
`CN[C@@H](C)C(=O)N[C@H]1CCS[C@H]2CC(C)(C)C(C(=O)N[C@@H]3CCCc4ccccc43)N2C1=O` (some centres unmarked) [Product 35]: the inhibition constant Ki on XIAP BIR1/2, at ML-IAP and at XIAP BIR3 was less than 25 µM in each case. In the assay on PPC-1 cells [1], the “PPC-1 (TNFα) LD50” value was “A (A = ≤ 25 micromolar)”. The “PPC-1 (TRAIL) LD50” value in the assay with PPC-1 cells [2] is “A (A = ≤ 25 micromolar)”.
